Our source for the MIC, IC50 and Solubility values is patent US5656736A, “Compound UCH9” (Kyowa Hakko Kogyo Co., Ltd., priority 1993, dated 1997).

Converted amounts (≈) assume the structure as drawn. Structures can show the parent of a compound that is named as a salt.

The subject of series [1] is Bacillus subtilis No. 10707. Description: Antibacterial activity, agar dilution method (MIC). In kind it is cell-based. As to conditions: pH 7. The method, then: (§1) The minimum inhibitory concentration (MIC) of the compound obtained in Example 1 against the growth of various bacteria is shown in Table 1.
(§2) The antibacterial activity was determined by the agar dilution method using a medium (pH 7) which comprises 3 g/l Bacto-tryptone (Difco Laboratories),3 g/l meat extract, 1 g/l yeast extract, 1 g/l glucose and 16 g/l agar.
(In general: Agar dilution tests growth on a series of plates holding different concentrations.)

For series [2], the system named is Enterococcus faecium ATCC 10541. The series is described as follows: Antibacterial activity, agar dilution method (MIC). It is filed as cell-based. As to conditions: ATCC10541, pH 7. The method, then:
as §1, §2

The subject of series [3] is Staphylococcus aureus ATCC 6538P. Description: Antibacterial activity, agar dilution method (MIC). As to conditions: ATCC6538P, pH 7. It is filed as cell-based. Here is the method: as §1, §2
Series [4] relates to HeLa S3 cells (ATCC HTB22). The series is described as follows: Growth inhibition against HeLa S3 cells (Neutral Red staining). In kind it is cell-based. As to conditions: Homo sapiens, 72 hours, 37° C. The method, then:
HeLa S3 cells (ATCC HTB22) were suspended in a medium comprising 10% fetal calf serum, 2 mM glutamine and MEM medium (Nippon Pharmaceutical Co., Ltd.) (hereinafter referred to as medium A) to a concentration of 3×10^4 cells/mi. The cell suspension was put into wells of a 96-well microtiter plate in an amount of 0.1 ml per well. The cells in the plate were cultured at 37° C. for 20 hours in a CO2 -incubator. Subsequently, the test compound obtained in Example 1 which was appropriately diluted with medium A was added to the wells in an amount of 0.1 ml/well. The cells were further cultured at 37° C. for 72 hours in the CO2 -incubator, and then the culture supernatant was removed. To the residue was added a medium comprising medium A and 0.02% Neutral Red in an amount of 0.1 ml per well, followed by culturing at 37° C. for one hour in the CO2 -incubator, whereby the cells were stained. After removal of the culture supernatant, the residue was washed once with physiological saline. The pigment was extracted with 0.001N hydrochloric acid/30% ethanol, and the absorbance at 550 nm was measured by using a microplate reader. The concentration of the test compound at which the growth of the cells is inhibited by 50% (IC50) was calculated by comparing the absorbance of untreated cells with those of the cells treated with the test compound at known concentrations.

The next series in a line: Solubility. It is filed as physicochemical.

What is called MIC is the lowest concentration that inhibits growth of the organism. The low end stands for a more susceptible organism, the high end for a less susceptible organism. One may read the IC50 as the midpoint of a concentration-inhibition curve. A higher IC50 goes with a need for much substance. In the case of `CCC(C)c1c(OC2CC(O)C(O)C(C)O2)cc2cc3c(c(O)c2c1O)C(=O)C(OC1CC(OC2CC(OC4CC(OC5CC(OC)C(O)C(C)O5)C(O)C(C)O4)C(O)C(C)O2)C(O)C(C)O1)C(C(OC)C(=O)C(O)C(C)O)C3` (centres unmarked) [UCH9], the MIC in series [1] turned out to be 0.04 µg/mL (≈ 0.0355 µM); in series [2], 41.6 µg/mL (≈ 36.9 µM); in series [3], 5.2 µg/mL (≈ 4.61 µM). Moreover, the midpoint of inhibition in series [4], the IC50, lay at 0.015 µg/mL (≈ 0.0133 µM).

Take `CCC(C)c1c(OC2CC(O)C(O)C(C)O2)cc2cc3c(c(O)c2c1O)C(=O)C(OC1CC(OC2CC(OC4CC(OC5CC(OC)C(O)C(C)O5)C(O)C(C)O4)C(O)C(C)O2)C(O)C(C)O1)C(C(OC)C(=O)C(O)C(C)O)C3` (centres unmarked) [UCH9·1/2 magnesium salt]: the Solubility result in the series “Solubility” (chloroform) is given as “sparingly soluble”; in “Solubility” (dimethylsulfoxide (DMSO)) it was “Soluble”; in “Solubility” (methanol) it was “Soluble”; in “Solubility” (water) it was “sparingly soluble”.
